Where two headings read alike, the source gives them in different places. Where a SMILES comes first, the peptide text is derived from it. [ ]: non-standard residue; d: D form. The star is where a group is joined. ξ: configuration not given here. ξTic = O=C(O)C1Cc2ccccc2CN1; Cbz = O=C(OCc1ccccc1)*; ξV = CC(C)C(N)C(=O)O; CF3 = FC(F)(F)*
How the values were obtained:
Type in all cases: biochemical
[1] = molecular target: Chymotrypsin (Bos taurus, UniProt P00766); assay: Selectivity assay: chymotrypsin; conditions: selectivity table
[2] = molecular target: Urokinase (Homo sapiens, UniProt P00749); assay: Selectivity assay: urokinase; conditions: selectivity table
[3] = molecular target: Cathepsin B (Homo sapiens, UniProt P07858); assay: Selectivity assay: cathepsin B; conditions: selectivity table
[4] = molecular target: T1, Human C1 Esterase (Homo sapiens, UniProt P09871); assay: Selectivity assay: human C1 esterase; conditions: selectivity table
T1 sequence (P09871 438-688 limits assumed): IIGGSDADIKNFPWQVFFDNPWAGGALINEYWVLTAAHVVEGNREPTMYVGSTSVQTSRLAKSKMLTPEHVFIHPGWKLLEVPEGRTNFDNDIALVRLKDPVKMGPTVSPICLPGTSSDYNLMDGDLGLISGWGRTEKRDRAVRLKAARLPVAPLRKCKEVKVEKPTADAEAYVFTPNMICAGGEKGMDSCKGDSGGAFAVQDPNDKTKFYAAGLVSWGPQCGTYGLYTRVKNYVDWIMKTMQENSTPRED
T1 sequence (P09871 16-437 partner limits assumed): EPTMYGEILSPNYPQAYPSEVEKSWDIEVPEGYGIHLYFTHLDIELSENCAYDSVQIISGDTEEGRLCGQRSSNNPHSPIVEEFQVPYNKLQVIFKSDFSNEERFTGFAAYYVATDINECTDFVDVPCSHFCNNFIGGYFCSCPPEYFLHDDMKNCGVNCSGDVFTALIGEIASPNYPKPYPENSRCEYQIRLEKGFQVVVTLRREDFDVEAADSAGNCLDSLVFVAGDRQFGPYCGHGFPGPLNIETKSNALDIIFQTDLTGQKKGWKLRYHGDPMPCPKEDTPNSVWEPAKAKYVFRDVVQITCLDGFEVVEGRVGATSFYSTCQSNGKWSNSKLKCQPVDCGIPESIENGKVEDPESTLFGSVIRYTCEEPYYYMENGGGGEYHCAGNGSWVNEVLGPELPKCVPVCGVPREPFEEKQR

[5] = molecular target: Plasmin (Homo sapiens, UniProt P00747); assay: Selectivity assay: plasmin; conditions: selectivity table
[6] = molecular target: Recombitant 3C - Proteinase; assay: Selectivity assay: recombinant 3C-proteinase; conditions: selectivity table
[7] = molecular target: T2, Recombitant HIV Protease (Human immunodeficiency virus type 1 group M subtype B, UniProt P04585); assay: Selectivity assay: recombinant HIV protease; conditions: selectivity table
T2 construct: Recombitant HIV Protease

[8] = molecular target: Thrombin (Homo sapiens, UniProt P00734); assay: Selectivity assay: thrombin; conditions: selectivity table
[9] = molecular target: T3, Human Leukocyte Elastase (Homo sapiens, UniProt P08246); assay: Elastase inhibition in vitro, MeO-Suc-Ala-Ala-Pro-Val-pNA hydrolysis (human sputum elastase)
T3 construct: purchased Elasten Products Co., Pacific, Mo; host or cells: human sputum
T3 sequence (P08246 30-247 limits assumed): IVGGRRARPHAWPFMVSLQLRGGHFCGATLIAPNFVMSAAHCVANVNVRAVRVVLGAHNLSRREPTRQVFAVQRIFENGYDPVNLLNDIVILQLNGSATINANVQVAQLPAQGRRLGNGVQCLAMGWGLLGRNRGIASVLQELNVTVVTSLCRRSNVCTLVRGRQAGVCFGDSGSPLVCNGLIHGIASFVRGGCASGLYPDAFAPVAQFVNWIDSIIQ
Description: The method of K. Nakajima et al., Journal of Biological Chemistry, 254: 4027-4032 was adapted to a microtiter format. The in vitro assay is based upon the hydrolysis of the commercially available (Sigma Chemical Company, St. Louis, Mo.) substrate methoxy O-succinyl-L-alanyl-L-alanyl-L-prolyl-L-valine para - nitroanilide (MeO-Suc-Ala-Ala-Pro-Val-pNA) and the release of para-nitroanilide (pNA), which absorbs at 405 nm.
b. Vmax Kinetic Microtiter Plate Reader, equipped with 405 nm filter (Molecular Devices)
a. Human sputum elastase (HSE) (Elasten Products Co., Pacific, Mo.) dissolved 1 mg/mL in 0.05M sodium chloride and frozen (50 μL aliquots) at -20° C. until used.
b. Stock solution of MeO-Suc-Ala-Ala-Pro-Val-pNA dissolved at 15 mM in dimethylsulfoxide (DMSO) and frozen (4 mL aliquots) at -20° C. until used.
c. Assay buffer: 0.1M tris buffer, pH 7.5 containing 0.5M sodium choloride.
Screening is performed in microtiter plates, using 0.5 mM substrate and monitored on a Microtiter Reader. Enzyme activity (+/- test compound) is determined as the rate of pNA release (linear regression analysis of slope). Inhibitory activity of the test compound is calculated relative to the uninhibited enzyme control, as follows: [formula]
A frozen aliquot of HSE is thawed and diluted with assay buffer to a stock concentration of 0.02 mg/mL (30×assay concentration). […]

Sequence of Plasmin (P00747 581-810 limits assumed, species assumed): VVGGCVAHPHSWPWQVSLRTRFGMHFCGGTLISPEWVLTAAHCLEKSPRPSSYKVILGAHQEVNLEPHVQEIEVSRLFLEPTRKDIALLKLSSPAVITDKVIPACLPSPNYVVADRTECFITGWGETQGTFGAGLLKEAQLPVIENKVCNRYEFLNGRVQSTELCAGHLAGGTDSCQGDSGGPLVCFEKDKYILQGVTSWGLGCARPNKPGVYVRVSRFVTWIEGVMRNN
Sequence of Plasmin (P00747 97-580 partner limits assumed, species assumed): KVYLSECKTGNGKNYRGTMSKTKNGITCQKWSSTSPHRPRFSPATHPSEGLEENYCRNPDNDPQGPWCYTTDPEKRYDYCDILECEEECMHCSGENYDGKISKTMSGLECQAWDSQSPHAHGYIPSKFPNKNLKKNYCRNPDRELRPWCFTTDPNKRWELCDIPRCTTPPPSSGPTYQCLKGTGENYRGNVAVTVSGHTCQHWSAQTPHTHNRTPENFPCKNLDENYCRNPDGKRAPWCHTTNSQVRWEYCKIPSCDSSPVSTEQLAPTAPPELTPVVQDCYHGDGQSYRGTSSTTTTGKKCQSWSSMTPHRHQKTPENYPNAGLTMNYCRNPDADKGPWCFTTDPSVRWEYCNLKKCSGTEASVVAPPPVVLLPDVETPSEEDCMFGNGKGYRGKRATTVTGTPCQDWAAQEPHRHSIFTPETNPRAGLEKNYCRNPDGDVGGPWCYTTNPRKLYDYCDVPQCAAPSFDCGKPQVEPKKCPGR

Row | IC50 ([9]; Table I, in vitro inhibition, 0.5 mM substrate, pH 7.5, read-out: In Vitro IC50) [µM] | Structure (SMILES) | IC50 [1] [µM] | IC50 [2] [µM] | IC50 [3] [µM] | IC50 [4] [µM] | IC50 [5] [µM] | IC50 [6] [µg/mL] | IC50 [7] [µM] | IC50 [8] [µM] | IC50 ([9]; selectivity table, Human Leukocyte Elastase) [µg/mL]
1 | – | CC(C)C(NC(=O)C1Cc2ccccc2CN1C(=O)[C@@H](NC(=O)c1ccc(C(=O)NS(=O)(=O)c2ccc(Cl)cc2)cc1)C(C)C)C(=O)C(F)(F)F (stereo partly drawn) [p-[p-Cl(C6 H4)SO2 NHCO](C6 H4)CO, [[4-(4-Chlorophenyl)sulfonylaminocarbonyl]phenyl-1-oxomethyl]-L-valyl-N-[3-(1,1,1-trifluoro-4-methyl-2-oxopentyl)]-1,2,3,4-tetrahydro-3-isoquinoline-carboxamide] | > 8.01 | > 8.01 | > 8.01 | > 8.01 | > 8.01 | > 50 | > 66.7 | > 8.01 | 0.082
2 | < 17.8 | CC(C)C(NC(=O)C1Cc2ccccc2CN1C(=O)[C@@H](NC(=O)OCc1ccccc1)C(C)C)C(=O)C(F)(F)F (stereo partly drawn) [CBZ] (Cbz-Val-[ξTic]-[ξV]-CF3) | – | – | – | – | – | – | – | – | –

— patent publication US5232928A, “Tetrahydroisoquinoline amides” (Boehringer Ingelheim Pharmaceuticals, Inc., priority 1991, dated 1993)
